Laboratory results taken from ChEMBL document CHEMBL1147913, “Na+-glucose cotransporter (SGLT) inhibitory flavonoids from the roots of Sophora flavescens” (Bioorg Med Chem, 2007).

What was measured:
[1] = target: T1, Sodium/glucose cotransporter 1 (Homo sapiens) (UniProt P13866); assay: Inhibition of human SGLT1 expressed in COS1 cells assessed as [14C]methyl-alpha-D-glucopyranoside uptake at 50 uM; type: cell-based; conditions: COS-1
T1 sequence (whole entry): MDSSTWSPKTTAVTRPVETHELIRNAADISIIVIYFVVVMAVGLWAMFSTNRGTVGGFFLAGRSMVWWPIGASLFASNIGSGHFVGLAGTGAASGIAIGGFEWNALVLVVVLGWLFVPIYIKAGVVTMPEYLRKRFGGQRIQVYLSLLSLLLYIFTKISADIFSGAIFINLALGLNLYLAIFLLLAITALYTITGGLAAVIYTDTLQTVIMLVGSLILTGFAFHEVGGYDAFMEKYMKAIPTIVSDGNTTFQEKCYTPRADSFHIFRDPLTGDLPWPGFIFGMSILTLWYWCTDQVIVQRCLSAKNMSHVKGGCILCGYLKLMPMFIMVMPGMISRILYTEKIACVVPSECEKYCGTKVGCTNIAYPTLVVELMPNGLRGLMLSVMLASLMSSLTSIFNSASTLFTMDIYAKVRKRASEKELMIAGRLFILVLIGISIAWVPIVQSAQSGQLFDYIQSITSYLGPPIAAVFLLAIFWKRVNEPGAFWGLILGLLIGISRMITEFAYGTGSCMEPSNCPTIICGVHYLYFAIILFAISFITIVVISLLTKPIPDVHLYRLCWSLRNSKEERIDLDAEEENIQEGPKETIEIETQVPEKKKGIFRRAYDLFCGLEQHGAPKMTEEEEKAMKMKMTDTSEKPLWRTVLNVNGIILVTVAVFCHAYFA

[2] = target: T2, Sodium/glucose cotransporter 2 (Homo sapiens) (UniProt P31639); assay: Inhibition of human SGLT2 expressed in COS1 cells assessed as [14C]methyl-alpha-D-glucopyranoside uptake at 50 uM; type: cell-based; conditions: COS-1
T2 sequence (whole entry): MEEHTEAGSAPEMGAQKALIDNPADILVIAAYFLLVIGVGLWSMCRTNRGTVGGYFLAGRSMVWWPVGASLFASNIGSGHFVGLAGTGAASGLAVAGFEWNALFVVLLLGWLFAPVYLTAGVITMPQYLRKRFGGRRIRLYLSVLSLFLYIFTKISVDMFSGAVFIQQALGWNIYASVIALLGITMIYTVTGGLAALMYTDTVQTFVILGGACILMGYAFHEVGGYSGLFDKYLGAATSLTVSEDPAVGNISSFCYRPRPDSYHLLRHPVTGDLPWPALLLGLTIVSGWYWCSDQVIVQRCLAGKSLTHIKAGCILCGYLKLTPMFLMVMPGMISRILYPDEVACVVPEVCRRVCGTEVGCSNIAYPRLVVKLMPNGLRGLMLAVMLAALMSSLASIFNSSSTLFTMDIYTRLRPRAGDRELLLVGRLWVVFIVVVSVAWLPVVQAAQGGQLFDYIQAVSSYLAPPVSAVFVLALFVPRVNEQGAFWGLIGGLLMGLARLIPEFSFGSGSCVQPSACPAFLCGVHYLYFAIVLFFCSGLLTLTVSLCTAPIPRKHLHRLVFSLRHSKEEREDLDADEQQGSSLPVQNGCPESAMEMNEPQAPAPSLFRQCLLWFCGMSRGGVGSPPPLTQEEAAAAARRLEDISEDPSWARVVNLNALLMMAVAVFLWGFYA

[3] = target: T3, Sodium/glucose cotransporter 2 (Homo sapiens, UniProt P31639); assay: Inhibition of human SGLT2 expressed in COS1 cells assessed as [14C]methyl-alpha-D-glucopyranoside uptake; type: cell-based, COS-1
T3 sequence (P31639 whole entry): T2 sequence (whole entry)

Question: For `COc1ccc2c(c1)OC[C@H]1c3cc4c(cc3O[C@@H]21)OCO4`, which inhibition [1] is on record?
Answer: The inhibition was under 25%.

Question: And the inhibition [2]?
Answer: Its inhibition is under 25%.

Question: `C=C(C)[C@H](CCC(C)(C)O)Cc1c(O)cc(OC)c2c1O[C@H](c1ccc(O)cc1O)[C@H](O)C2=O` was tested. Which inhibition [1] did it give?
Answer: The inhibition was 29.7%.

Question: What about the inhibition [2] of the same compound?
Answer: The inhibition was 43.7%.

Question: Which inhibition [1] does the source give for `COc1ccc(-c2coc3cc(O)ccc3c2=O)cc1` here?
Answer: Its inhibition is under 25%.

Question: What about the inhibition [2] of the same compound?
Answer: Its inhibition is 75.4%.

Question: With `C=C(C)[C@H](CC=C(C)C)Cc1c(O)cc(OC)c(C(=O)/C=C/c2ccc(O)cc2O)c1O` as the compound, how does the inhibition [1] read?
Answer: Its inhibition is 71.1%.

Question: And the inhibition [2]?
Answer: Its inhibition is 100%.

Question: What does the source list for `C=C(C)C(CC=C(C)C)Cc1c(O)cc(OC)c2c1O[C@H](c1ccc(O)cc1O)CC2=O` (stereo partly drawn) [KURARINONE]?
Answer: inhibition [1]: 98.8%; IC50 [3]: 1.7 µM; inhibition [2]: 99.7%

Question: How did the inhibition [1] turn out when `C=C(C)C(CC=C(C)C)Cc1c(O)cc(OC)c2c1O[C@H](c1ccc(O)cc1O)[C@H](O)C2=O` (stereo partly drawn) was run?
Answer: Its inhibition is 58.4%.

Question: What about the inhibition [2] of the same compound?
Answer: The inhibition was 87.3%.

Question: Which results are given for `Oc1ccc2c(c1)OC[C@H]1c3cc4c(cc3O[C@@H]21)OCO4`?
Answer: inhibition [1]: < 25%; inhibition [2]: 66.5%

Question: For `C=C(C)[C@H](CC=C(C)C)Cc1c(O)cc(O)c2c1O[C@H](c1ccc(O)cc1O)CC2=O` [SOPHORAFLAVANONE G], which inhibition [1] is on record?
Answer: The inhibition was 99.2%.

Question: And the IC50 [3]?
Answer: The IC50 was 4.1 µM.

Question: What about the inhibition [2] of the same compound?
Answer: Its inhibition is 100%.
